Several values for one entry are separate records, joined by “and”; a condition that tells them apart may be missing. Equal values may be shown once.
Key:
[1] = target: human serum albumin (HSA) (Homo sapiens, UniProt P02768); assay: HSA fluorescence quenching (Stern-Volmer); type: binding; settings: for Stern Volmer quenching constant KSV / association constant Ka / bimolecular quenching constant Kq / number of binding sites n: HSA, Hepes pH 7.4; for HSA fluorescence intensity quenched: two molar excesses of complex, 37 °C, 24 h, pH 7.4
Chain of human serum albumin (HSA) (P02768 25-609): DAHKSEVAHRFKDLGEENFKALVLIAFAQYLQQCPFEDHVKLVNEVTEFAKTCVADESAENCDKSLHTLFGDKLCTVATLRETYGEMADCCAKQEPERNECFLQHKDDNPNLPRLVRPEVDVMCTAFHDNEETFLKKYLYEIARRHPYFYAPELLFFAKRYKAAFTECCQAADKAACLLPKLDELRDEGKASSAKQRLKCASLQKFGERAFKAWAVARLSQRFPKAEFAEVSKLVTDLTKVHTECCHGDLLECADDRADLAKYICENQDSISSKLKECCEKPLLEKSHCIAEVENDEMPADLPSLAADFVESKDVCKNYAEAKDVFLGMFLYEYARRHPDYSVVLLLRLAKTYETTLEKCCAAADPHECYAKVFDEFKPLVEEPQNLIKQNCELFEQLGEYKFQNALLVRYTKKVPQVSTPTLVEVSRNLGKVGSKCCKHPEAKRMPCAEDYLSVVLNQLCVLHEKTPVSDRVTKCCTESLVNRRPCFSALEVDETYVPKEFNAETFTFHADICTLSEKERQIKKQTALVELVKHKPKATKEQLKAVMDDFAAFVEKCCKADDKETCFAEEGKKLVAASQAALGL
Description: Stock solutions of HSA were prepared by dissolving HSA in 10 mM Hepes buffer, pH 7.4. The protein concentration was determined spectrophotometrically using the molar absorption coefficient of 36,500 M^−1 cm^−1 at 280 nm. The complexes [P][AuSEt(=S)], [P][AuSEt(=Se)], [P][AuSeiPr(=S)] and [P][AuSBu(=S)] were first prepared at 1 mM concentration in DMSO due to the limited solubility of the complexes in aqueous media. A series of complex–protein solutions were prepared by adding different concentrations of gold complexes solutions to the protein solution previously prepared. After preparation of the batch complex–protein solutions, the final concentration of DMSO was 1%. For fluorescence acquisition, the final HSA concentration was […] and the gold concentrations were […]. The mixtures were stirred to ensure the formation of a homogeneous solution and then kept in an incubator at 37 °C for 24 h in the dark to stabilize and enhance the interaction time. The reference solutions without protein were prepared following the procedures described above.
Steady-state fluorescence measurements were performed with a Fluorolog Model-3.22 spectrofluorimeter from Horiba Jobin Yvon at 25 °C. All the experiments were performed in Hellma® semi-micro fluorescence cuvettes (Suprasil® quartz, path-length 10 × 4 mm, chamber volume […]) with the 10 mm path length for the excitation of the sample. The excitation and emission bandwidths were fixed at 4.0 nm, and the excitation wavelength was 295 nm to excite selectively the tryptophan 214 residue, the emission spectra were recorded from 305 to 550 nm. Buffer solutions of gold complexes in corresponding concentrations were used as reference for the measured fluorescence spectra of protein–complex mixtures. The fluorescence intensities were corrected for the absorption of the exciting light and reabsorption of the emitted light to decrease the inner filter effect using UV–visible absorption data recorded for each sample on a Jasco V-660 spectrophotometer in the range of 260 to 800 nm with 1 mm path quartz cells. More details and all the equations can be found in the SI.
F0 = 1 + (K + K )[Q] + K K [Q]2 (S1) where F0 and F are the fluorescence intensities of HSA in the absence and presence of a quencher (Au complex), respectively; KD and KS represents the dynamic and static constants, respectively, and [Q] is the quencher concentration.
When the fluorescence intensity quenching occurs by a purely static or dynamic mechanism, the following Stern-Volmer equation can be used:
F0 = 1 + K τ [Q] = 1 + K [Q] (S2) where Kq, 0 and KSV represents the bimolecular quenching constant, the fluorophore lifetime in the absence of the quencher and the Stern -Volmer quenching constant, respectively.
The relationship between the fluorescence intensity of the protein and the complex concentrati on is given by the equation:
log (F0 − F) = log K + n log[Q] […]
Table S1. Values of Stern Volmer quenching constant (Ksv), association constant (Ka) and number of binding sites (n) for the interaction for HSA with gold […]

[2] = tested on: S. aureus Newman; assay: MIC determination, S. aureus; type: cell-based, Staphylococcus aureus; settings: MH broth, 22 h, 37 °C
From the text: The bacterial strains Escherichia coli ATCC25922 and Staphylococcus aureus Newman were used in this work and maintained in Lennox Broth (LB) solid medium, composed of 10 g/L tryptone, 5 g/L yeast extract, 5 g/L NaCl and 20 g/L agar. The fungal strains Candida albicans SC5134 and C. glabrata CBS138 were used in this work and maintained in YPD solid medium, composed of 20 g/L glucose, 20 g/L peptone, 10 g/L yeast extract and 15 g/L agar. The strains were isolated from human infections.
The antimicrobial activity of the complexes towards the bacterial and fungal strains was assessed by the determination of the Minimal Inhibitory Concentration (MIC) of each complex towards the indicated microbial strains, based on standard methods, and as previously described. […] Serial 1:2 dilutions of stock solutions were prepared for each complex in Mueller–Hinton (MH) broth (Fluka Analytical) or RPMI-1640 medium (Sigma) supplemented with 20 g/L glucose and buffered with 0.165 M morpholinepropanesulphonic acid (RPMIG) to pH 7.0. Solutions prepared with MH were used for testing bacteria, while those prepared with RPMIG were used for testing fungi. For antibacterial activity assays, the final concentrations ranged from 250 to 0.24 μg/mL (when stock solution final concentration was 10 mg/mL), 125 μg/mL to 0.12 μg/mL (when stock solution final concentration was 5 mg/mL) and 62.5 to 0.06 μg/mL (when stock solution final concentration was 2.5 mg/mL). For antifungal assays, the final concentrations ranged from 125 μg/mL to 0.12 μg/mL (when stock solution final concentration was 10 mg/mL), 62.5 to 0.06 μg/mL (when stock solution final concentration was 5 mg/mL) and 31.25 to 0.03 μg/mL (when stock solution final concentration was 2.5 mg/mL). Then, 100 μL aliquots of adequately diluted bacterial suspensions of S. aureus Newman or E. coli ATCC 25922 were mixed with the MH serially diluted complexes aliquots to obtain 5 × 10^5 CFU/mL. In the case of fungi, cultures were diluted to obtain a final optical density of 0.025, measured at 530 nm (OD530). Bacterial suspensions were prepared from cultures grown for 5 h in MH broth at 37 °C and 250 rev·min^−1 and adequately diluted with fresh MH medium, while fungal suspensions were prepared from overnight cultures grown in YPD broth at 30 °C and 250 rev.min^−1 and diluted in buffered RPMIG. After 22 h of incubation at 37 °C (bacteria) or 24 h at 35 °C (fungi), the wells’ content was resuspended by pipetting and the OD640 (bacteria) or OD530 (fungi) were measured in a SPECTROstar Nano microplate reader (BMG Labtech).
At least three independent experiments were performed in duplicate for each complex under study. […] Positive (no complex) and negative controls (no inoculum) were performed for each experiment. The effect of 5% (V/V) DMSO on microbial growth was also assessed.

SMILES | Stern Volmer quenching constant KSV [1] | association constant Ka [1] | bimolecular quenching constant Kq [1] | number of binding sites n [1] | HSA fluorescence intensity quenched [1] | MIC S. aureus Newman [2]
CCn1c2c(sc1=[Se])[S][Au-]1([S]c3sc(=[Se])n(CC)c3[S]1)[S]2.c1ccc([P+](c2ccccc2)(c2ccccc2)c2ccccc2)cc1 [[P][AuSEt(=Se)]] | 5.00 ± 0.17 x 105 L mol-1 | 0.52 ± 0.03 x 104 L mol-1 | 5.00 ± 0.17 x 1013 L mol-1 s-1 | 2.135 | 79.4% | >125 mg/L
CCn1c2c(sc1=S)[S][Au-]1([S]c3sc(=S)n(CC)c3[S]1)[S]2.c1ccc([P+](c2ccccc2)(c2ccccc2)c2ccccc2)cc1 [[P][AuSEt(=S)]] | 6.48 ± 0.06 x 105 L mol-1 | 1.12 ± 0.02 x 104 L mol-1 | 6.48 ± 0.06 x 1013 L mol-1 s-1 | 1.179 | 76.3% | >125 mg/L
CC(=O)OC[C@H]1O[C@@H]([S-])[C@H](OC(C)=O)[C@@H](OC(C)=O)[C@@H]1OC(C)=O.CCP(CC)CC.[Au+] [Auranofin, reference compound] |  |  |  |  |  | 0.2 mg/L and 0.173 ± 0.004 mg/L
CC(C)n1c2c(sc1=S)[Se][Au-]1([Se]c3sc(=S)n(C(C)C)c3[Se]1)[Se]2.c1ccc([P+](c2ccccc2)(c2ccccc2)c2ccccc2)cc1 [[P][AuSeiPr(=S)]] | 3.63 ± 0.04 x 105 L mol-1 | 1.52 ± 0.01 x 104 L mol-1 | 3.63 ± 0.01 x 1013 L mol-1 s-1 | 0.957 | 60% | >62.5 mg/L
CCCCn1c2c(sc1=S)[S][Au-]1([S]c3sc(=S)n(CCCC)c3[S]1)[S]2.c1ccc([P+](c2ccccc2)(c2ccccc2)c2ccccc2)cc1 [[P][AuSBu(=S)]] | 14.9 ± 0.13 x 105 L mol-1 | 9.34 ± 0.01 x 104 L mol-1 | 14.9 ± 0.05 x 1013 L mol-1 s-1 | 0.738 | 89.7% | >125 mg/L

Source: PMC9266914, “Broad Spectrum Functional Activity of Structurally Related Monoanionic Au(III) Bis(Dithiolene) Complexes” (International Journal of Molecular Sciences, 2022)
